Values after ≈ are worked out from the molar mass of the structure shown. “Also recorded” adds a separate entry of the source.
What was measured:
[1] = Aqueous solubility (thermodynamic, UV spectroscopy); format: physicochemical; details: aqueous buffer, thermodynamic from solid, phosphate buffer pH 7.4, 37 °C
Procedure: The test was performed based on the absorbance obtained by ultraviolet spectroscopy. The scanning wavelength was determined according to the highest absorbance observed for each compound. Saturated aqueous solution of the analyzed compounds were stirred for 4 h at 37 °C, and then filtered through a 0.45 µm PVDF filter and transferred to a quartz cuvette (10 mm optical path) for reading. Solubility was determined by linear regression based on the equation of the line.

[2] = Distribution coefficient at pH 7.4 (shake-flask, octanol/phosphate buffer); format: physicochemical; details: 1-octanol/buffer pH 7.4; n-octanol/buffer partitioning at pH 7.4, UV method; read-out: Log D7.4
Procedure: The assay was performed based on the shake-flask method and the absorbance readings by ultraviolet spectroscopy at maximum absorbance wavelength. To a Falcon tube with a capacity of 15 mL, 5 mL of buffer solution at pH 7.4 and 5 mL of 1-octanol were added. Then, the tested compounds were added at defined concentrations of approximately 10–15 µM, and the mixtures were homogenized via vigorous manual shaking. Next, the Falcon tubes were stirred for 4 h at 37 °C, and the experiment was carried out in triplicate for each compound. Subsequently, each sample was placed in a separatory funnel, and the collected aqueous phase was filtered through a 0.45 µm PVDF filter and transferred to a quartz cuvette (10 mm optical path) for UV/Vis reading. The distribution coefficient of each compound at pH 7.4 was determined by linear regression using the straight-line equation [33].

[3] = Parallel artificial membrane permeability assay, blood-brain barrier (PAMPA-BBB)
Procedure: In a 5 mL glass vial, 1 mg of each compound (test or control) was dissolved in 1 mL of ethanol. Then, 500 μL of ethanol and 3.5 mL of PBS at pH 7.4 were added to this solution. […] After 5 min, the donor plate received 180 μL of each compound solution in triplicate. […] The experiments were performed in triplicate with two different analyses (n = 2).

plasma carboxylesterases = test: Plasma stability against enzymatic hydrolysis; format: in vitro ADME, Wistar rats; details: rat plasma, determined after 240 min
Procedure: For the evaluation of plasma stability against plasma carboxylesterases, a pool of plasma male Wistar rats weighing 300–360 g kept in the vivarium of the Laboratory of Biochemical and Molecular Pharmacology-UFRJ was used. Blood was collected with heparin and kept on ice. Then, the samples were centrifuged at 2000 rpm for 15 min at 20 °C, with subsequent removal of the plasma. The plasma was then diluted 80% (v/v) with phosphate buffer (PBS; pH = 7.4) at 37 °C. The experiments performed in this work were approved by the Ethics Committee on the Use of Animals in Scientific Experiments of the Health Sciences Center of the Federal University of Rio de Janeiro (Number 028/15). The biological matrix was incubated at 37 °C under agitation for 30, 60, 120, and 240 min. The degree of degradation was evaluated by HPLC-PDA with methyl 1,1′bisphenyl-4-carboxylate as an internal standard (PI), using an isocratic mobile phase of 70%:30% acetonitrile:water (0–15 min), an injection volume of 20 μL, a flow rate of 1 mL/min, and detection at 254 nm.

human CB1 = molecular target: T1, human CB1 (Homo sapiens, UniProt P21554); test: Agonist activity, cAMP in CB1-transfected CHO cells; format: cell-based; details: CB1-expressing CHO cells
T1 construct: host or cells: CHO cells
T1 sequence (P21554 whole entry): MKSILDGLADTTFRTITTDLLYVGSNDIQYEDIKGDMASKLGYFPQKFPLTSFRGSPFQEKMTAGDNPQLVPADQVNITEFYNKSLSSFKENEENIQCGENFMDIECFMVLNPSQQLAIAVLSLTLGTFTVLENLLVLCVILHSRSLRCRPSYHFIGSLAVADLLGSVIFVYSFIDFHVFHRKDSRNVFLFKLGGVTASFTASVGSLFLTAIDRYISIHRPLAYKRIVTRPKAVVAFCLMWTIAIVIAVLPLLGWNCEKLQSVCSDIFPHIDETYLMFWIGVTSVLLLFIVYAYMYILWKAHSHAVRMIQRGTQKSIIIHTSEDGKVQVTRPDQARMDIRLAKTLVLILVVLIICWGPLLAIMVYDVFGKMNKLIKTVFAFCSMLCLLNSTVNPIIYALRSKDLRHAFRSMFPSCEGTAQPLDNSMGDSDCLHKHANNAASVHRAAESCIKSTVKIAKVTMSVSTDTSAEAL
Procedure: (§1) Negative and blank controls were performed in triplicate with and without the addition of forskolin, respectively.

[4] = tested on: formalin-induced licking behavior in mice; test: Formalin-induced licking behavior; format: in vivo, Swiss Webster mice
Procedure: This assay was performed as described by Hunskaar et al. and adapted by Gomes et al.. This model was characterized by a response that occurred in two phases. The first phase (acute neurogenic pain) occurred during the first 5 min after the intraplantar injection of formalin, and the second phase (inflammatory pain) occurred 15 to 30 min post-injection. Mice were pretreated with oral doses of LASSBio-2265 (11, at 1, 3 or 10 mg/kg, p.o.), morphine (2.5 mg/kg, i.p.), acetylsalicylic acid (ASA, 200 mg/kg, p.o.), or the vehicle (same amount of DMSO used to solubilize the substances + NaCl 0.9%) 60 min before the administration of formalin. […] Then, mice (n = 7 per group) received 20 μL of formalin (2.5% v/v) in the dorsal surface of the left hind paw. The time that the mice spent licking the injected paw was immediately recorded. […] The final volume administered to mice was 0.1 mL.

human CB2 [5] = molecular target: T2, human CB2 (Homo sapiens, UniProt P34972); test: Agonist activity, cAMP in CB2-transfected CHO cells; format: cell-based; design: host or cells: CHO cells; details: CB2-expressing CHO cells, from 1 μM
T2 sequence (P34972 whole entry): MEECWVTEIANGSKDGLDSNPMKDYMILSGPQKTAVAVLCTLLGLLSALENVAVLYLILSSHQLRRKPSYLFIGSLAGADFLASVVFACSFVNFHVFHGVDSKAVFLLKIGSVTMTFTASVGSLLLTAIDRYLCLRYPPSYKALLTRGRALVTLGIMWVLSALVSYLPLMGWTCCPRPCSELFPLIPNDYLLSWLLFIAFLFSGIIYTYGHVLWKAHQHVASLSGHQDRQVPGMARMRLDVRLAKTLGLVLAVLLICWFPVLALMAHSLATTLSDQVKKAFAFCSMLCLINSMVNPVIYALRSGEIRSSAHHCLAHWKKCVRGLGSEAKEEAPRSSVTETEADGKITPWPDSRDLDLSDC
Procedure: as §1

human CB2 [6] = molecular target: T2, human CB2; test: Inverse agonist activity, cAMP Hunter CHO-K1 CNR2 Gi cells (HitHunter cAMP XS+); format: cell-based; design: host or cells: cAMP Hunter CHO-K1 CNR2 Gi; details: inverse agonism, cAMP increase, 8 μM (EC20) forskolin
Procedure: The cellular functional assay used to evaluate the inverse agonist activity of LASSBio-2265 (11) toward the cannabinoid CB2 receptor was carried out at Eurofins DiscoveryX Corporation USA (https://www.discoverx.com/home) under the study number FR095-0025341-Q (accessed on 02 June 2021) using the GPCR Biosensor Assay. Cell line cAMP Hunter CHO-K1 CNR2 Gi was seeded at a total volume of 20 µL into white-walled, 384-well microplates and incubated at 37 °C prior to testing in the presence of 8 μM (EC20) forskolin. The media was aspirated from the cells and replaced with 15 µL a 2:1 solution of Hanks’ balanced salt solution (HBSS)/10 mM Hepes:cAMP XS+ Ab reagent. Intermediate dilution of the sample stocks was performed to generate 4× samples in assay buffer containing 32 μM forskolin. Then, 5 µL of each 4× sample was added to the cells and incubated at 37 °C for 60 min. […] After signal generation, the microplates were read with a PerkinElmer Envision instrument for chemiluminescent signal detection. Compound activity was analyzed using the CBIS data analysis suite (ChemInnovation, San Diego, CA, USA). Percent activity was calculated using the following formula: […]
(§2) Data obtained from duplicate experiments were fit to concentration-response curves by non-linear regression of the Hill equation. Curve-fit parameters and standard errors were calculated using GraphPad Prism 6.0 (Hercules, CA, USA).

human CB2 [7] = molecular target: T2, human CB2; test: Human CB2 (agonist radioligand) receptor binding assay, [3H]-WIN 55212-2; design: host or cells: cAMP Hunter CHO-K1 CNR2 Gi; details: membranes from CB2-expressing CHO cells, [3H]-WIN55212-2 radioligand, duplicate
Procedure: Assays of binding to CB2 receptors were performed at Eurofins Discovery France (https://www.eurofinsdiscoveryservices.com/) under the study number 100057099 (accessed on 3 June 2021) using the protocol previously published by Munro, Thomas, and Abu-Shaar. Human recombinant CB2 receptors were expressed in CHO cells, and binding was performed with [^3H]-WIN 55212-2, which is a nonselective agonist radioligand. The analysis was performed using software developed at Cerep (Hill software, Santa Barbara, CA, USA) and SigmaPlot 4.0 for Windows (^©1997 by SPSS Inc., Chicago, IL, USA).
as §2

[8] = Parallel artificial membrane permeability assay, gastrointestinal (PAMPA-GI / PAMPA-GTI)
Procedure: A 10 mM solution of each compound (tests and controls) was prepared in DMSO. Then, in a 5 mL glass flask, 250 µL of the freshly prepared solution was homogenized with 4750 µL of PBS at pH 6.6 to a concentration of 10 mM. The solution was then filtered in a 0.45 µm PVDF filter and set aside. Then, 180 µL of a solution of phosphate-bufffered saline (PBS, pH 7.4):DMSO (95:5) was added to the wells of the receptor plate, and 5 µL of the soy L-α-phosphatidylcholine lipid solution (20 mg/mL in dodecane) was added to the wells of the donor plate. After 5 min, the donor plate received 180 µL of the reserved solution containing each compound. […] After this period, the donor plate was removed, and the contents of the recipient plate were transferred to a UV reading plate and read (SpectraMax 5, Molecular Devices) at the maximum wavelengths for each compound. The blank was prepared with 180 µL of PBS solution (pH 7.4):DMSO (95:5). The experiments were carried out in triplicate with two different analyses (n = 2) [37]. The optical density values obtained from the readings at each selected wavelength for each of the compounds were analyzed by comparison with the values of the controls. These values were used to determine the absorbed fraction (Fa %) using the JMP® program version 10.0.

solubility at 4 h [1]: 68.5 µM (≈ 30.4 µg/mL)
logD [2]: 1.98
Papp at 2.75 h, 0.2 mg/mL ([3]; PAMPA, pH 7.4): 9.26 ×10⁻⁶ cm/s
Classification ([3]; Table S2, PAMPA-BBB): CNS +
Pe experimental ([3]; Table S2, PAMPA-BBB): 9,26 10-6 cm s-1
Plasma Metabolization Rate (plasma carboxylesterases): 13.04%
Effect on cAMP concentration (human CB1): no effect was observed
Effect on cAMP concentration (human CB2 [5]): important effect starting from 1 μM
Emax (human CB2 [6]; CHO-K1, read-out: Emax (efficacy, % of the maximum effect)): 63%
EC50 (human CB2 [6]): 0.369 ± 0.03 µM
Ki (human CB2 [7]): 16 µM
Papp at 8 h, 0.5 mM ([8]; PAMPA): 10.2 ×10⁻⁶ cm/s
Pe Exp ([8]; Table S1, PAMPA-GTI): 10,18 10-6 cm/s
Fa ([8]; Table S1, PAMPA-GTI, absorbed fraction): 97,91%
PAMPA-GI Fa Exp ([8]; absorbed fraction, soybean L-α-phosphatidylcholine membrane): 97.91%
SMILES: Cc1c(N(C)C(=O)C(C)c2ccc(-c3ccccc3)c(F)c2)c(=O)n(-c2ccccc2)n1C (centres unmarked) [Compound 11, N-(1,5-dimethyl-3-oxo-2-phenyl-2,3-dihydro-1H-pyrazol-4-yl)-2-(2-fluoro-[1,1’-biphenyl]-4-yl)-N-methylpropanamide]
PAMPA-BBB Score ([3]; porcine brain lipid membrane): CNS+ (CNS+ (high predicted BBB permeability) Pe > 4.0 × 10^−6 cm/s)
Antinociceptive effect in the formalin test ([4]; 3 mg/kg): decreased pain behaviour
Analgesia in the second (late, inflammatory) phase of the formalin test ([4]; LASSBio-2265 1, 3 and 10 mg/kg p.o., morphine 2.5 mg/kg, ASA 200 mg/kg, listed as LASSBio-2265 (11)): remarkable analgesic activity in the late inflammatory phase; also recorded: comparable to both morphine and ASA
Analgesia in the first phase of the formalin test ([4]; morphine 2.5 mg/kg i.p., ASA 200 mg/kg p.o., LASSBio-2265 1, 3 and 10 mg/kg p.o., compared to vehicle): only morphine (2.5 mg/kg) promoted significant analgesia
Classification ([8]; Table S1, PAMPA-GTI): HIGH (high intestinal permeability: >70%)

— publication PMC9781268, “2-Arylpropionic Acid Pyrazolamides as Cannabinoid CB2 Receptor Inverse Agonists Endowed with Anti-Inflammatory Properties” (Pharmaceuticals, 2022)
